{"source": "patent US7851503B2", "about": "“Thrombopoetin receptor activator and process for producing the same” (Nissan Chemical Industries, Ltd., priority 2002, dated 2010)", "key": {"[1]": {"system": "UT7/EPO-mpl cells (expressing human TPO receptor (c-mpl))", "assay": "Cell proliferation assay by the MTT method, TPO-dependent cell line UT7/EPO-mpl", "assay_type": "cell-based", "conditions": "4 days incubation, absorbance at 550 nm", "method": "Stimulation of Proliferation of a Thrombopoietin (TPO)-Dependent Cell Line (1)\n(§1) The reactivity of a compound of the present invention, xanthocillin X monomethyl ether, with thrombopoietin (TPO) receptor was assayed using a human leukemic cell line, UT7/EPO-mpl. UT7/EPO-mpl is a stable transformed cell line obtained by introducing into human leukemic cell line UT7/EPO a vector that induces expression of human TPO receptor (c-mpl) under control of a cytomegaloviral promoter by the method of Takatoku et al. (J. Biol. Chem., 272:7259-7263 (1997)). […] These two cell lines were subcultured in IMDM (GIBCO) containing 10% fetal bovine serum (FBS; TRACE SCIENTIFIC) using a CO2 incubator (5% CO2, 37° C.).\nThe subcultured cells described above were washed twice with PBS and suspended in IMDM containing 10% FBS at a cell density of 6×10^4 cells/ml. The cell suspension was transferred to a 96-well tissue culture plate (CORNING) in 100-μl aliquots. Then, xanthocillin X monomethyl ether dissolved in DMSO was diluted 83-fold with IMDM containing 10% FBS and added to the aforementioned cell suspension in 20-μl aliquots. […] The formazan pigment generated was dissolved by adding 150 μl per well of 0.1 M/L HCl/isopropanol solution and the absorbance of the resulting pigment solution was measured at 550 nm with a 96-well microplate reader (BIO-RAD, M450)."}, "UT7/EPO cells [2]": {"system": "UT7/EPO cells", "assay": "Cell proliferation assay by the MTT method, mother cell line UT7/EPO expressing no TPO receptor", "assay_type": "cell-based, human", "conditions": "4 days incubation, absorbance at 550 nm", "method": "as §1\nThe subcultured cells described above were washed twice with PBS and suspended in IMDM containing 10% FBS at a cell density of 6×10^4 cells/ml. The cell suspension was transferred to a 96-well tissue culture plate (CORNING) in 100-μl aliquots. Then, xanthocillin X monomethyl ether dissolved in DMSO was diluted 83-fold with IMDM containing 10% FBS and added to the aforementioned cell suspension in 20-μl aliquots. The suspension was incubated in a CO2 incubator (5% CO2, 37° C.) for 4 days. […] The formazan pigment generated was dissolved by adding 150 μl per well of 0.1 M/L HCl/isopropanol solution and the absorbance of the resulting pigment solution was measured at 550 nm with a 96-well microplate reader (BIO-RAD, M450)."}, "[3]": {"system": "UT7/EPO-mpl cells (expressing human TPO receptor (c-mpl))", "assay": "Cell proliferation assay with WST-8 reagent, TPO-dependent cell line UT7/EPO-mpl", "assay_type": "cell-based", "conditions": "4 days incubation, absorbance at 450 nm", "method": "Stimulation of Proliferation of a Thrombopoietin (TPO)-Dependent Cell Line (2)\nThe reactivity of a compound of the present invention, 3-methoxyxanthocillin X dimethyl ether, with thrombopoietin (TPO) receptor was assayed using a human leukemic cell line, UT7/EPO-mpl.\n(§2) Cells subcultured in the same manner as in Assay Example 1(1) were washed twice with PBS and suspended in IMDM containing 10% FBS at a cell density of 6×10^4 cells/ml. The cell suspension was transferred to a 96-well tissue culture plate (CORNING) in 100-μl aliquots. Then, 3-methoxyxanthocillin X dimethyl ether dissolved in DMSO was diluted 83-fold with IMDM containing 10% FBS and added to the aforementioned cell suspension in 20-μl aliquots. The suspension was incubated in a CO2 incubator (5% CO2, 37° C.) for 4 days. Cell proliferation was assayed using WST-8 reagent (Kishida Chemical Co., Ltd.) according to instructions by the manufacturer. A 10-μl aliquot of 5 mM WST-8 reagent solution was added to each well of the tissue culture plate, and the plate was incubated at 37° C. for 4 h. The formazan pigment generated was detected by measuring the absorbance at 450 nm with a 96-well microplate reader (Nihon Molecular Devices, Spectramax 190)."}, "UT7/EPO cells [4]": {"system": "UT7/EPO cells", "assay": "Cell proliferation assay with WST-8 reagent, mother cell line UT7/EPO expressing no TPO receptor", "assay_type": "cell-based, human", "conditions": "4 days incubation, absorbance at 450 nm", "method": "as §2"}}, "data": [{"smiles": "[C-]#[N+]C(=C\\c1ccc(O)cc1)/C(=C/c1ccc(OC)cc1)[N+]#[C-]", "note": "[xanthocillin X monomethyl ether]", "values": [{"measurement": "proliferation of TPO-responsive UT7/EPO-mpl cells (MTT assay, FIG. 1)", "setting": "[1]", "result": "stimulated"}, {"measurement": "effect on proliferation of UT7/EPO, the mother cell line (MTT assay, FIG. 2)", "setting": "UT7/EPO cells [2]", "result": "no effect"}]}, {"smiles": "[C-]#[N+]C(=Cc1ccc(OC)cc1)C(=Cc1ccc(OC)c(OC)c1)[N+]#[C-]", "note": "[3-methoxyxanthocillin X dimethyl ether]", "values": [{"measurement": "proliferation of TPO-responsive UT7/EPO-mpl cells (WST assay, FIG. 3)", "setting": "[3]", "result": "stimulated"}, {"measurement": "effect on proliferation of UT7/EPO, the mother cell line (WST assay, FIG. 4)", "setting": "UT7/EPO cells [4]", "result": "no effect"}]}]}
